Results from patent US8957016B2, “Tumor activated prodrugs” (Genspera, Inc., priority 2006, dated 2015).
Like-named read-outs stand apart in the source and are kept apart here. *1 amine or outer side, *2 acyl side, *3 side chain or, on linkers, in order; H or OH if unused. Where a SMILES comes first, the peptide text is derived from it. [ ]: non-standard residue; d: D form. The star is where a group is joined. AMC = Cc1cc(=O)oc2cc(N*)ccc12; Morpholide = C1CN(*)CCO1; CO = O=C([*:1])[*:2]

Experiments:
[1] = biological target: PSA (Homo sapiens, UniProt P07288); experiment: Kinetic parameters of fluorescent (AMC) PSA peptide substrates, Lineweaver Burke plots; assay type: biochemical; details: PSA 10 μg/ml, AMC-coupled peptide
PSA, sequence (P07288 25-261): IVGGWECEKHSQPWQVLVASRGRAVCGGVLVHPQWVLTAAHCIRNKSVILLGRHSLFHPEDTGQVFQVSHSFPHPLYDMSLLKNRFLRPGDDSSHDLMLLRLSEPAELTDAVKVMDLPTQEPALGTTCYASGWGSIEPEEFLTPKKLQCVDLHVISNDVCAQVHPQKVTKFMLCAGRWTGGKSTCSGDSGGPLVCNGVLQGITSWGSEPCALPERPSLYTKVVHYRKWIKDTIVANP
Experimental: These peptides were then incubated with PSA (10 μg/ml) and Michaelis Menton kinetic parameters determined using Lineweaver Burke plots, Table 3. In this study, Kcat/Km ratios were calculated in order to rank peptides. Newly synthesized peptides contained an acetyl protecting group (Ac) at the amino terminus, whereas the test peptide contained the protecting group morpholinylcarbonyl (Mu).

[2] = biological target: sarcoplasmic reticulum (SR) and endoplasmic reticulum (ER) Ca2+-ATPase (SERCA) pump; details: read-out: apparent dissociation constant; cited from earlier work

| SMILES | kcat [1] [s⁻¹] | Km ([1]; read-out: Km) [µM] | Km [1] [µM] | Kd [2] [pM] |
| --- | --- | --- | --- | --- |
| CC(=O)NCC(=O)N[C@@H](CCCCN)C(=O)N[C@@H](CO)C(=O)N[C@@H](CCC(N)=O)C(=O)N[C@@H](Cc1ccc(O)cc1)C(=O)N[C@@H](CCC(N)=O)C(=O)Nc1ccc2c(C)cc(=O)oc2c1 [Ac-GKSQYQ-AMC] (Ac-GKSQYQ-{AMC}) | 0.09 | 343 |  |  |
| CC(=O)NCC(=O)N[C@@H](CO)C(=O)N[C@@H](CO)C(=O)N[C@@H](CCCCN)C(=O)N[C@@H](Cc1ccccc1)C(=O)N[C@@H](CCC(N)=O)C(=O)Nc1ccc2c(C)cc(=O)oc2c1 [Ac-GSSKFQ-AMC] (Ac-GSSKFQ-{AMC}) | 0.057 |  | 666 |  |
| CC(=O)NCC(=O)N[C@@H](CO)C(=O)N[C@@H](CO)C(=O)N[C@@H](CCCCN)C(=O)N[C@@H](Cc1ccc(O)cc1)C(=O)N[C@@H](CCC(N)=O)C(=O)Nc1ccc2c(C)cc(=O)oc2c1 [Ac-GSSKYQ-AMC] (Ac-GSSKYQ-{AMC}) | 0.113 |  | 500 |  |
| CC(=O)NCC(=O)N[C@H](CO)C(=O)N[C@@H](C)C(=O)N[C@@H](CCCCN)C(=O)N[C@@H](Cc1ccc(O)cc1)C(=O)N[C@@H](CCC(N)=O)C(=O)Nc1ccc2c(C)cc(=O)oc2c1 [Ac-GsAKYQ-AMC] (Ac-G[dS]AKYQ-{AMC}) | 0.143 |  | 653 |  |
| Cc1cc(=O)oc2cc(NC(=O)[C@H](CCC(N)=O)NC(=O)[C@H](CC(C)C)NC(=O)[C@H](CCCCN)NC(=O)[C@H](CO)NC(=O)[C@H](CO)NC(=O)[C@H](Cc3c[nH]cn3)NC(=O)N3CCOCC3)ccc12 [Mu-HSSKLQ-AMC, reference compound] ({Morpholide-CO}-HSSKLQ-{AMC}) | 0.011 |  |  |  |
| C/C=C(/C)C(=O)O[C@H]1C(C)=C2[C@H]([C@@H]1OC(=O)CCCCCCC)[C@@](C)(OC(C)=O)C[C@H](OC(=O)CCC)[C@@]1(O)[C@H]2OC(=O)[C@@]1(C)O [Thapsigargin] |  |  |  | ≤ 2.2 |
